Columns and labels:
[1] = target: T1, RORγt (Homo sapiens, UniProt P51449); assay: RORγt binding test (TR-FRET, fluorescent-labeled cholesterol); conditions: test compound 1 μM, histidine-tagged RORγt, read-out: binding inhibitory rate of fluorescent-labeled cholesterol to RORγt
T1 sequence (P51449 1-497 isoform P51449-2): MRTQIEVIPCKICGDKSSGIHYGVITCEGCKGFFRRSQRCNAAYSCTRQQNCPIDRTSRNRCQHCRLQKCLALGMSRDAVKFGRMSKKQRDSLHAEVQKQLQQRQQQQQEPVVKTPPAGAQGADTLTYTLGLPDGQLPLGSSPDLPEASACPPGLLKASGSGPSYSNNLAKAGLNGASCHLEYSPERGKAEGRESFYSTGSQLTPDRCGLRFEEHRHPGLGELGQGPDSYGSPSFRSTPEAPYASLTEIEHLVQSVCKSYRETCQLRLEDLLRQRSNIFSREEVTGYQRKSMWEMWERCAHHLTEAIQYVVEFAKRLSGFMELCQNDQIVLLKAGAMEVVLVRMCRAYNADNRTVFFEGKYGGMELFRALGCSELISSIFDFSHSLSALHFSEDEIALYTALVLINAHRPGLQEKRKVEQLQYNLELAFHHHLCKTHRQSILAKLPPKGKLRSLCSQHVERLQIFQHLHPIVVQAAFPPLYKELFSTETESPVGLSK
Method: The binding activity of the test compound to RORγt was measured by a time resolved fluorescence resonance energy transfer method (TR-FRET) utilizing histidine-tagged RORγt, fluorescent-labeled cholesterol (BODIPY-cholesterol, AVIVA), and terbium-labeled anti-histidine tag antibody (Invitrogen). First, a test compound diluted with an assay buffer (20 mM Tris-HCl (pH 7.5), 100 mM NaCl, 1 mM DTT, 0.1% BSA) was added to a 384 well plate by 3 μL. Then, RORγt diluted with an assay buffer to 240 nM was added by 3 μL, after which fluorescent-labeled cholesterol diluted with the assay buffer to 12 μM was added by 3 μL, and the mixture was stood at room temperature for 20 min. Thereafter, a terbium-labeled anti-histidine tag antibody diluted with the assay buffer to 8 nM was added by 3 μL. The mixture was stood at room temperature for 20 min, and fluorescence intensity (excitation wavelength 320 nm, fluorescence wavelength 520 nm, delay time 100 microseconds) was measured by Envision (PerkinElmer).
The results (binding inhibitory rate of fluorescent-labeled cholesterol to RORγt at test compound 1 μM) measured by the above-mentioned method are shown in Table 2.

[2] = target: T1, RORγt; assay: Cofactor recruitment test (Alpha Screen, biotinylated SRC-1 peptide); type: biochemical; conditions: test compound 1 μM, RORγt and biotinylated SRC-1 peptide, read-out: signal value inhibitory rate
Method: Cofactor recruitment test was performed by Alpha Screen (Histidine Detection Kit, PerkinElmer) method. First, a test compound was diluted with an assay buffer (50 mM Tris-HCl (pH 7.5), 50 mM KCl, 1 mM DTT, 0.1% BSA) and added to a 384 well plate by 5 μL. Then, RORγt diluted with an assay buffer to 125 nM was added by 10 μL each, after which solutions of 25 nM biotinylated SRC-1 peptide (biotin-[…]), 12.5 μg/mL acceptor beads and 12.5 μg/mL donor beads prepared with the assay buffer were added by 10 μL each. The mixture was stood in a dark place for 1 hr, and the signal value was measured by Envision (PerkinElmer).

[3] = target: T1, RORγt; assay: Jurkat reporter test (human IL-17 ROR response element luciferase); type: cell-based; conditions: test compound 3 μM; Jurkat cells transfected with IL-17 ROR response element luciferase reporter and RORγt vector; cultured overnight; read-out: luminescence level inhibitory rate
Method: The Jurkat cells used for the reporter test were cultured in a culture medium (RPMI (Invitrogen), 10% FCS (AusGeneX), 100 U/mL penicillin, 100 μg/mL streptomycin). On the day of the test, 4×10^7 cells were recovered by a centrifugal operation (1000 rpm, 5 min.) and suspended in PBS (phosphate buffered saline) (Invitrogen). Thereafter, the cells were recovered again by a centrifugal operation, and suspended in 2 mL of R buffer (NEON transfection kit, Invitrogen). Then, a reporter vector 53 μg wherein a human IL-17 ROR response element was inserted into the upstream of luciferase of pGL 4.28 (Promega), and a vector (27 μg) wherein RORγt sequence was inserted into the downstream of CMV promoter were added to the cell suspension. Gene transfer was performed by Electroporation apparatus (NEON, Invitrogen) under the conditions of pulse voltage 1350 V, interval 10 milliseconds, number of times 3. The cells after gene transfer were suspended in 40 mL of a reaction medium (RPMI, 10% Lipid reduced FCS (HyClone), 10 mM HEPES (pH 7.5), 100 U/mL penicillin, 100 μg/mL streptomycin, 5 μM lovastatin), and plated in a 96 well plate by 90 μL. A test compound diluted with the reaction medium was added by 10 μL, and the cells were cultured overnight in an incubator. Bright-Glo (Promega) was added by 100 μL, and the mixture was stirred at room temperature for 10 min, and the luminescence level was measured by Envision (PerkinElmer).
The results (luminescence level inhibitory rate at test compound 3 μM) measured by the above-mentioned method are shown in Table 4.

[4] = tested on: CD4 positive naive T cells (differentiation into Th17 cells); assay: Mouse Th17 cell differentiation induction test; type: cell-based; conditions: 96 h; test compound 10 μM; BALB/c mouse CD4 positive naive T cells; 4 days; ELISA; read-out: inhibitory rate (IL-17A in culture supernatant, Th17 differentiation)
Method: CD4 positive naive T cells were collected from the spleen cells of BALB/c mice (female, 8-11w) using CD4+CD62L+ T Cell Isolation kit II (Miltenyi Biotec). The CD4 positive naive T cells were plated in a 96 well plate (3×10^5 cells/well), stimulated (37° C. for culture) with anti-mouse CD3ε antibody (10 μg/mL, solid phase) and anti-CD28 antibody (5 μg/mL) for 4 days in the presence of anti-IFN-γ antibody, anti-IL-4 antibody, anti-IL-2 antibody, IL-6, TGF-β and IL-23 to allow for differentiation into Th17 cells. The compound was dissolved in DMSO and then added. The cells were cultured under these conditions for 4 days, the concentration of IL-17A in the culture supernatant obtained by centrifugation was measured by ELISA, and differentiation of the Th17 cells was evaluated.

[5] = tested on: Peripheral blood mononuclear cells (PBMC); assay: Human PBMC IL17 production test; type: cell-based; conditions: 72 h; test compound 10 μM; human PBMC stimulated by anti-CD3/CD28 Dynabeads; 3 days; ELISA; read-out: inhibitory rate (IL-17A in culture supernatant, IL-17 production)
Method: Peripheral blood mononuclear cells (PBMC) collected from human peripheral blood by a density gradient centrifugation method were stimulated by Dynabeads (registered trade mark; anti-CD3/CD28 antibody) and cultured at 37° C. for 3 days. The compound was dissolved in DMSO and then added. After culture for 3 days under such conditions, the concentration of IL-17A in the culture supernatant obtained by centrifugation was measured by ELISA, and the activity of the compound on IL-17 production was evaluated.

[6] = tested on: CD4 positive naive T cells (differentiation into Th17 cells); assay: Human Th17 cell differentiation induction test; type: cell-based; conditions: 144 h, test compound 10 μM, 6 days, ELISA, read-out: inhibitory rate (IL-17A in culture supernatant, Th17 differentiation)
Method: Using peripheral blood mononuclear cells (PBMC) collected from human peripheral blood by a density gradient centrifugation method, CD4 positive naive T cells were collected. The CD4 positive naive T cells were plated in a 96 well plate (2×10^4 cells/well), and stimulated (37° C. for culture) with anti-CD3/28Ab Dynabeads for 6 days in the presence of IL-1β, IL-6, IL-23, TGFβ, anti-IFNγ Ab, anti-IL-4 Ab to allow for differentiation into Th17 cells. The compound was dissolved in DMSO and then added. After culture for 6 days, the concentration of IL-17A in the culture supernatant obtained by centrifugation was measured by ELISA, and differentiation of the Th17 cells was evaluated.

| SMILES | inhibition at 1 µM [1] | inhibition at 1 µM [2] | inhibition at 3 µM [3] | inhibition at 10 µM [4] | inhibition at 10 µM [5] | inhibition at 10 µM [6] |
| --- | --- | --- | --- | --- | --- | --- |
| CC(C)(C)n1ncc(-c2nc(CC(=O)NCc3cccnc3)cs2)c1-c1ccc(F)cc1 [Example 79, 2-{2-[1-tert-butyl-5-(4-fluorophenyl)-1H-pyrazol-4-yl]-1,3-thiazol-4-yl}-N-(pyridin-3-ylmethyl)acetamide] | 95.4% | 99.8% | 85.7% | 69% | – | – |
| CC(C)(C)n1ncc(-c2nc(CC(=O)NCC3CCOCC3)cs2)c1-c1ccccc1 [Example 41] | 94.6% | 101% | 82.1% | 92.6% | – | – |
| CC(C)(C)n1ncc(-c2nc(CC(=O)NCC3CCOCC3)cs2)c1-c1ccc(Cl)cc1 [Example 128, 2-{2-[1-tert-butyl-5-(4-chlorophenyl)-1H-pyrazol-4-yl]-1,3-thiazol-4-yl}-N-(tetrahydro-2H-pyran-4-ylmethyl)acetamide] | 97.8% | 101% | 97.1% | 97.7% | – | – |
| O=C(Cc1csc(-c2cnn(C3CCCCC3)c2-c2ccc(F)cc2)n1)NCC1CCOCC1 [Example 51, 2-{2-[1-cyclohexyl-5-(4-fluorophenyl)-1H-pyrazol-4-yl]-1,3-thiazol-4-yl}-N-(tetrahydro-2H-pyran-4-ylmethyl)acetamide] | 95.3% | 78.6% | 94.9% | 86% | – | – |
| CC(C)(C)n1ncc(-c2nc(CC(=O)NCc3ccc(-n4ccnc4)cc3)cs2)c1-c1ccc(F)cc1 [Example 170, 2-{2-[1-tert-butyl-5-(4-fluorophenyl)-1H-pyrazol-4-yl]-1,3-thiazol-4-yl}-N-[4-(1H-imidazol-1-yl)benzyl]acetamide] | 86.5% | 100% | 94.4% | – | – | – |
| CC(C)(C)n1ncc(-c2nc(CC(=O)NCC3CCOCC3)cs2)c1-c1ccc(C#N)cc1 [Example 43, 2-{2-[1-tert-butyl-5-(4-cyanophenyl)-1H-pyrazol-4-yl]-1,3-thiazol-4-yl}-N-(tetrahydro-2H-pyran-4-ylmethyl)acetamide] | 98.3% | 101% | 94.2% | 78.6% | – | – |
| COc1ccc(-c2c(-c3nc(CC(=O)NCC4CCOCC4)cs3)cnn2C(C)(C)C)cc1F [Example 152, 2-{2-[1-tert-butyl-5-(3-fluoro-4-methoxyphenyl)-1H-pyrazol-4-yl]-1,3-thiazol-4-yl}-N-(tetrahydro-2H-pyran-4-ylmethyl)acetamide] | 95.9% | 95.4% | 96% | 91.2% | 92% | – |
| COc1ccc(-c2c(-c3nc(CC(=O)NCC4CCOCC4)cs3)cnn2C(C)(C)C)cc1 [Example 39, 2-{2-[1-tert-butyl-5-(4-methoxyphenyl)-1H-pyrazol-4-yl]-1,3-thiazol-4-yl}-N-(tetrahydro-2H-pyran-4-ylmethyl)acetamide] | 98.7% | 101% | 101% | 95% | 91.3% | 100% |
| CC(C)(C)n1ncc(-c2nc(CC(=O)NCC3CCOCC3)cs2)c1-c1cc2ccccc2s1 [Example 150, 2-{2-[5-(1-benzothiophen-2-yl)-1-tert-butyl-1H-pyrazol-4-yl]-1,3-thiazol-4-yl}-N-(tetrahydro-2H-pyran-4-ylmethyl)acetamide] | 98.7% | 99.3% | 98.4% | 97.7% | 92% | – |
| CN(Cc1ccncc1)C(=O)Cc1csc(-c2cnn(C(C)(C)C)c2-c2ccc(F)cc2)n1 [Example 18, 2-{2-[1-tert-butyl-5-(4-fluorophenyl)-1H-pyrazol-4-yl]-1,3-thiazol-4-yl}-N-methyl-N-(pyridin-4-ylmethyl)acetamide] | 96.1% | 102% | 87.1% | 96.3% | – | – |
| CCCN(Cc1ccccc1)C(=O)Cc1csc(-c2cnn(C(C)(C)C)c2-c2ccc(F)cc2)n1 [Example 97, N-benzyl-2-{2-[1-tert-butyl-5-(4-fluorophenyl)-1H-pyrazol-4-yl]-1,3-thiazol-4-yl}-N-propylacetamide] | 87.3% | 98.8% | 84.1% | 95% | – | – |
| CC(C)(C)n1ncc(-c2nc(CC(=O)NCC3CCOCC3)cs2)c1-c1ccc(F)cc1 [Example 14, 2-{2-[1-tert-butyl-5-(4-fluorophenyl)-1H-pyrazol-4-yl]-1,3-thiazol-4-yl}-N-(tetrahydro-2H-pyran-4-ylmethyl)acetamide] | 92% | 109% | 81% | 77% | – | – |

From patent US9156837B2, “Heterocyclic compound” (Takeda Pharmaceutical Company Limited, priority 2011, dated 2015)
